The values that follow come from ChEMBL document CHEMBL4330112, “Monodisperse oligoethylene glycols modified Camptothecin, 10-Hydroxycamptothecin and SN38 prodrugs” (Bioorg Med Chem Lett, 2019).

Series [1] can be described thus: Solubility of the compound in phosphate buffered saline by UV-spectroscopic analysis. The series is classed as physicochemical.
For a further series, the system named is HepG2. Kind of series: Cytotoxicity against human HepG2 cells after 72 hrs by MTT assay. It is filed as functional, cell-based. As to conditions: HepG2, 72 h.
The next series concerns MCF7. The experiment in a line: Cytotoxicity against human MCF7 cells after 72 hrs by MTT assay. The series is classed as functional, cell-based. As to conditions: MCF7, 72 h. (In general: Tetrazolium dyes change colour on reduction, which living cells bring about.)
Series [2] is described as follows: Prodrug conversion in Sprague-Dawley rat plasma assessed as 10-hydroxycamptothecin formation at 4 mg measured within 2 hrs by UV-based RP-HPLC analysis. It is filed as ADME, cell-free.
A short description of series [3]: Prodrug conversion in Sprague-Dawley rat plasma assessed as SN38 formation at 4 mg measured within 2 hrs by UV-based RP-HPLC analysis. It is filed as ADME, cell-free.
Where [4] appears, read: phosphate buffered saline, read-out: solubility.

Usually solubility stands for the dissolved amount per volume that the medium holds. The IC50 is the concentration at which inhibition is half-maximal. Low readings indicate greater potency in that assay, high ones weaker potency in that assay.

Molecules are shown by their SMILES. ≈ marks a conversion by molar mass, not a printed value.

With `CC[C@@]1(OC(=O)OCCOCCOCCOCCOCCOCCOCCOCCOCCOCCOCCOCCOCCOCCOC)C(=O)OCc2c1cc1n(c2=O)Cc2cc3ccccc3nc2-1`, in series [1] (setting [4]), the solubility stood at 94.1 mg/mL (≈ 91.9 mM). The figures for the IC50 with HepG2 and in the series on MCF7 were 5.15 µM and 7.43 µM, respectively.

For `CC[C@@]1(OC(=O)OCCOCCOCCOCCOCCOCCOCCOCCOC)C(=O)OCc2c1cc1n(c2=O)Cc2cc3ccccc3nc2-1`, the solubility in series [1] (setting [4]) is 0.38 mg/mL (≈ 0.501 mM). Besides, the IC50 in the series with HepG2 worked out at 5.47 µM; in the series on MCF7, 7.42 µM.

With `CC[C@@]1(OC(=O)OCCOCCOCCOCCOCCOCCOCCOCCOCCOCCOCCOCCOC)C(=O)OCc2c1cc1n(c2=O)Cc2cc3ccccc3nc2-1`, the solubility in series [1] (setting [4]) is 82.8 mg/mL (≈ 88.6 mM). Further, the results for the 50% inhibitory concentration (IC50) with HepG2 and in the series on MCF7 were 5.97 µM and 3.36 µM, respectively.

`CCc1c2c(nc3ccc(OC(=O)OCCOCCOCCOCCOCCOCCOCCOCCOCCOCCOCCOCCOCCOCCOCCOCCOCCOCCOCCOCCOC)cc13)-c1cc3c(c(=O)n1C2)COC(=O)[C@]3(O)CC`: the figures for the IC50 with HepG2 and in the series on MCF7 were 1.98 µM and 3.08 µM, respectively.

Take `CC[C@@]1(O)C(=O)OCc2c1cc1n(c2=O)Cc2cc3cc(OC(=O)OCCOCCOCCOCCOCCOCCOCCOCCOCCOCCOCCOCCOCCOCCOC)ccc3nc2-1`: the results for the IC50 in the series on HepG2 and in the series on MCF7 were 1.79 µM and 5.61 µM, respectively.

As to `CC[C@@]1(OC(=O)OCCOCCOCCOCCOCCOCCOCCOCCOCCOCCOCCOCCOCCOCCOCCOCCOC)C(=O)OCc2c1cc1n(c2=O)Cc2cc3ccccc3nc2-1`, in series [1] (setting [4]), the solubility is 136 mg/mL (≈ 122 mM). Also, the half-inhibitory concentration (IC50) in the series on HepG2 is 4.72 µM; in the series on MCF7, 6.17 µM.

In the case of `CC[C@@]1(O)C(=O)OCc2c1cc1n(c2=O)Cc2cc3cc(OCCOCCOCCOCCOCCOCCOCCOCCO)ccc3nc2-1`, the solubility in series [1] (setting [4]) was 249 mg/mL (≈ 347 mM). In addition, the concentration for half-maximal inhibition (IC50) with HepG2 and with MCF7 was more than 100 µM in each case.

For `CC[C@@]1(O)C(=O)OCc2c1cc1n(c2=O)Cc2cc3ccccc3nc2-1` [CAMPTOTHECIN], in series [1] (setting [4]), the solubility worked out at 0.00069 mg/mL (≈ 0.00198 mM). In addition, the results for the IC50 in the series on HepG2 and in the series on MCF7 were 0.66 µM and 0.68 µM, respectively.

Take `CC[C@@]1(O)C(=O)OCc2c1cc1n(c2=O)Cc2cc3cc(OC(=O)OCCOCCOCCOCCOCCOCCOCCOCCOCCOCCOCCOCCOCCOCCOCCOCCOCCOCCOCCOCCOC)ccc3nc2-1`: the IC50 in the series with HepG2 worked out at 3.62 µM; with MCF7 it was 6.88 µM.

`CC[C@@]1(O)C(=O)OCc2c1cc1n(c2=O)Cc2cc3cc(OC(=O)OCCOCCOCCOCCOCCOCCOCCOCCOC)ccc3nc2-1`: the solubility in series [1] (setting [4]) was found to be 85.1 mg/mL (≈ 110 mM). Also, the IC50 in the series on HepG2 was 3.06 µM; with MCF7, 5.39 µM.

As to `CC[C@@]1(O)C(=O)OCc2c1cc1n(c2=O)Cc2cc3cc(OC(=O)OCCOCCOCCOCCOCCOCCOCCOCCOCCOCCOCCOCCOC)ccc3nc2-1`, the half-maximal inhibitory concentration (IC50) in the series on HepG2 was determined as 2.21 µM; in the series with MCF7 it was 2.85 µM. For the same compound, the Drug metabolism result in series [2] and in series [3] was “Metabolite_Detected” in each case.

For the compound `CC[C@@]1(O)C(=O)OCc2c1cc1n(c2=O)Cc2cc3cc(OC(=O)OCCOCCOCCOCCOCCOCCOCCOCCOCCOCCOCCOC)ccc3nc2-1`, the concentration for half-maximal inhibition (IC50) was determined as 2.51 µM in the series on HepG2 and 4.64 µM with MCF7.

In the case of `CC[C@@]1(O)C(=O)OCc2c1cc1n(c2=O)Cc2cc3cc(OC(=O)OCCOCCOCCOCCOCCOCCOCCOCCOCCOCCOC)ccc3nc2-1`, the solubility in series [1] (setting [4]) worked out at 142 mg/mL (≈ 165 mM). The half-inhibitory concentration (IC50) with HepG2 was determined as 2.08 µM; in the series on MCF7 it was 5.44 µM.

As to `CC[C@@]1(O)C(=O)OCc2c1cc1n(c2=O)Cc2cc3cc(OCCOCCOCCOCCOCCOCCOCCOCCOCCO)ccc3nc2-1`, the IC50 in the series on HepG2 and in the series with MCF7 was more than 100 µM throughout.

Regarding `CC[C@@]1(O)C(=O)OCc2c1cc1n(c2=O)Cc2cc3cc(OC(=O)OCCOCCOCCOCCOCCOCCOCCOCCOCCOCCOCCOCCOCCOCCOCCOCCOC)ccc3nc2-1`, the results for the IC50 in the series on HepG2 and in the series on MCF7 were 2.75 µM and 6.16 µM, respectively.

Consider `CC[C@@]1(OC(=O)OCCOCCOCCOCCOCCOCCOCCOCCOCCOCCOCCOCCOCCOCCOCCOCCOCCOCCOCCOCCOC)C(=O)OCc2c1cc1n(c2=O)Cc2cc3ccccc3nc2-1`, for which, in series [1] (setting [4]), the solubility worked out at 183 mg/mL (≈ 142 mM). The IC50 with HepG2 stood at 6.87 µM; with MCF7 it was 8.09 µM.

`CC[C@@]1(O)C(=O)OCc2c1cc1n(c2=O)Cc2cc3cc(OCCOCCOCCOCCOCCOCCOCCOCCOCCOCCOCCO)ccc3nc2-1`: the IC50 in the series on HepG2 and with MCF7 was more than 100 µM in each case.

Regarding `CC[C@@]1(O)C(=O)OCc2c1cc1n(c2=O)Cc2cc3cc(OC(=O)OCCOCCOCCOCCOCCOCCOCCOCCOCCOCCOCCOCCOCCOCCOCCOCCOCCOCCOCCOC)ccc3nc2-1`, the IC50 with HepG2 was found to be 2.2 µM; with MCF7, 6.09 µM.

As to `CC[C@@]1(O)C(=O)OCc2c1cc1n(c2=O)Cc2cc3cc(OCCOCCOCCOCCOCCOCCOCCOCCOCCOCCOCCOCCO)ccc3nc2-1`, the half-inhibitory concentration (IC50) in the series with HepG2 and with MCF7 was more than 100 µM each time.

As for `CC[C@@]1(O)C(=O)OCc2c1cc1n(c2=O)Cc2cc3cc(OC(=O)OCCOCCOCCOCCOCCOCCOCCOCCOCCOCCOCCOCCOCCOCCOCCOCCOCCOCCOCCOCCOCCOCCOCCOCCOC)ccc3nc2-1`, the IC50 with HepG2 came to 2.69 µM; in the series on MCF7, 6.76 µM.

Consider `CC[C@@]1(O)C(=O)OCc2c1cc1n(c2=O)Cc2cc3cc(OCCOCCOCCOCCOCCOCCO)ccc3nc2-1`, for which the solubility in series [1] (setting [4]) was 11 mg/mL (≈ 17.4 mM). The concentration for half-maximal inhibition (IC50) in the series on HepG2 was 50 µM; in the series on MCF7, more than 100 µM.

Regarding `CC[C@@]1(O)C(=O)OCc2c1cc1n(c2=O)Cc2cc3cc(OCCOCCOCCOCCO)ccc3nc2-1`, the solubility in series [1] (setting [4]) came to 0.95 mg/mL (≈ 1.76 mM). In addition, the 50% inhibitory concentration (IC50) with HepG2 is 41.8 µM; in the series with MCF7, 74.6 µM.

With `CC[C@@]1(OC(=O)OCCOCCOCCOCCOCCOCCOCCOCCOCCOCCOCCOCCOCCOCCOCCOC)C(=O)OCc2c1cc1n(c2=O)Cc2cc3ccccc3nc2-1`, the solubility in series [1] (setting [4]) turned out to be 114 mg/mL (≈ 106 mM). The IC50 in the series on HepG2 worked out at 7.07 µM; with MCF7 it was 8.53 µM.

Consider `CC[C@@]1(O)C(=O)OCc2c1cc1n(c2=O)Cc2cc3cc(OCCOCCOCCOCCOCCO)ccc3nc2-1`, for which the solubility in series [1] (setting [4]) stood at 6.34 mg/mL (≈ 10.8 mM). Besides, the IC50 in the series on HepG2 stood at 70.3 µM; in the series on MCF7, 95.8 µM.

Take `CC[C@@]1(O)C(=O)OCc2c1cc1n(c2=O)Cc2cc3cc(OCCOCCOCCOCCOCCOCCOCCO)ccc3nc2-1`: the solubility in series [1] (setting [4]) was determined as 73.3 mg/mL (≈ 109 mM). Further, the IC50 with HepG2 is 62.4 µM; in the series with MCF7, more than 100 µM.

For the compound `CCc1c2c(nc3ccc(O)cc13)-c1cc3c(c(=O)n1C2)COC(=O)[C@]3(O)CC` [7-ETHYL-10-HYDROXYCAMPTOTHECIN], in series [1] (setting [4]), the solubility came to 0.00087 mg/mL (≈ 0.00222 mM). The half-maximal inhibitory concentration (IC50) with HepG2 came to 0.48 µM; in the series on MCF7, 1.25 µM.

On to `CC[C@@]1(OC(=O)OCCOCCOCCOCCOCCOCCOCCOCCOCCOCCOC)C(=O)OCc2c1cc1n(c2=O)Cc2cc3ccccc3nc2-1`, for which the solubility in series [1] (setting [4]) amounted to 0.52 mg/mL (≈ 0.614 mM). The figures for the IC50 with HepG2 and with MCF7 were 4.48 µM and 10.3 µM, respectively.

Regarding `CC[C@@]1(O)C(=O)OCc2c1cc1n(c2=O)Cc2cc3cc(OC(=O)OCCOCCOCCOCCOCCOCCOCCOCCOCCOCCOCCOCCOCCOCCOCCOC)ccc3nc2-1`, the IC50 is 1.71 µM in the series with HepG2 and 4.47 µM in the series on MCF7.

For `CC[C@@]1(O)C(=O)OCc2c1cc1n(c2=O)Cc2cc3cc(OCCOCCOCCOCCOCCOCCOCCOCCOCCOCCO)ccc3nc2-1`, the half-maximal inhibitory concentration (IC50) in the series with HepG2 and with MCF7 was more than 100 µM throughout.

Regarding `CC[C@@]1(OC(=O)OCCOCCOCCOCCOCCOCCOCCOCCOCCOCCOCCOC)C(=O)OCc2c1cc1n(c2=O)Cc2cc3ccccc3nc2-1`, the solubility in series [1] (setting [4]) was determined as 79.5 mg/mL (≈ 89.2 mM). The values for the half-inhibitory concentration (IC50) with HepG2 and in the series with MCF7 were 4.78 µM and 8.48 µM, respectively.

As for `CC[C@@]1(OC(=O)OCCOCCOCCOCCOCCOCCOCCOCCOCCOCCOCCOCCOCCOCCOCCOCCOCCOCCOCCOCCOCCOCCOCCOCCOC)C(=O)OCc2c1cc1n(c2=O)Cc2cc3ccccc3nc2-1`, the solubility in series [1] (setting [4]) was found to be 272 mg/mL (≈ 186 mM). The results for the 50% inhibitory concentration (IC50) in the series on HepG2 and with MCF7 were 6.17 µM and 8.62 µM, respectively.

Take `CC[C@@]1(O)C(=O)OCc2c1cc1n(c2=O)Cc2cc3cc(O)ccc3nc2-1` [HYDROXYCAMPTOTHECIN]: in series [1] (buffer), the solubility is 0.00094 mg/mL (≈ 0.00258 mM). The 50% inhibitory concentration (IC50) in the series on HepG2 worked out at 1.47 µM; in the series with MCF7 it was 3.58 µM.

For `CCc1c2c(nc3ccc(OC(=O)OCCOCCOCCOCCOCCOCCOCCOCCOCCOCCOCCOCCOCCOCCOCCOC)cc13)-c1cc3c(c(=O)n1C2)COC(=O)[C@]3(O)CC`, the half-maximal inhibitory concentration (IC50) came to 2.31 µM with HepG2 and 4.72 µM in the series on MCF7. The Drug metabolism entry in series [2] and in series [3] was “Metabolite_Detected” each time.

For `CC[C@@]1(OC(=O)OCCOCCOCCOCCOCCOCCOCCOCCOCCOCCOCCOCCOCCOCCOCCOCCOCCOCCOCCOC)C(=O)OCc2c1cc1n(c2=O)Cc2cc3ccccc3nc2-1`, in series [1] (setting [4]), the solubility amounted to 143 mg/mL (≈ 115 mM). Also, the IC50 stood at 3.61 µM in the series on HepG2 and 7.43 µM in the series on MCF7.
